The source of these data is article PMC4764553, “Human cytomegalovirus IE1 protein alters the higher-order chromatin structure by targeting the acidic patch of the nucleosome” (eLife, 2016).

Residues, ends and D or L forms follow the SMILES beside them.

Assay [1] has as its target T1, NCP (nucleosome core particle) (Homo sapiens, UniProt P04908+P06899+P62805+P68431).
T1 construct: made in house; host or cells: E. coli BL21(DE3)-RIL
Kind of assay: biochemical. It is filed as binding.

Another assay deals with 10-nm nucleosomal array. Briefly: AUC sedimentation velocity of 10-nm nucleosomal array (without H1). Conditions: 12 x 177 bp 601 array without H1, […], peptide to NCP 5:1 molar ratio, 10 mM HEPES pH 8.0, 0.1 mM EDTA, array alone Save 36 ± 1 S, listed as LANA-CTD. It counts as biochemical, human. As for the experimental part: (§1) Recombinant human core histones were prepared as described above. Linker histone H1.4 and DNA templates of 12 tandem 177 bp repeats of the 601 sequence were cloned and purified, and reconstituted into chromatin as previously described ([Chen et al., 2013]; [Dyer et al., 2003]; [Li et al., 2010]; [Song et al., 2014]).
(§2) The reconstituted chromatin samples were subject to AUC analysis in a buffer containing 10 mM HEPES, pH 8.0 and 0.1 mM EDTA.

The target in assay [2] is T2, human NCP carrying the E56R mutation of histone H2A (Homo sapiens, UniProt P04908+P06899+P62805+P68431, E57R).
T2 construct: made in house; host or cells: E. coli BL21(DE3)-RIL
Kind of assay: ITC measurement of peptide binding to NCP reconstituted with H2A E56R mutant. To be noted: 20°C, 10 mM Tris-HCl pH 7.5, 50 mM NaCl, Figure 3. For orientation: In ITC the heat of successive injections is recorded.

In a further assay the test system is 30-nm chromatin fiber. Kind of assay: AUC sedimentation velocity of 30-nm chromatin fiber (with H1). It counts as biochemical, human. To be noted: 12 x 177 bp 601 array with H1, […], peptide/protein to NCP 5:1 molar ratio, 10 mM HEPES pH 8.0, 0.1 mM EDTA, listed as LANA-CTD. The method, then:
as §1, §2

The subject of a further assay is nucleosomal arrays. Conditions: folding of nucleosomal arrays induced by magnesium ions; ref Chodaparambil et al., 2007; cited from earlier work. The source says:
For the purpose of dissecting the functions of individual NCP binding partners, one would ideally like to be able to isolate histone mutants that affect the binding of one protein but not others. The most promising such sites appear to lie in zone II and III, as they are less frequently occupied among known NCP binding proteins (Figure 2). […] Nevertheless, the identification of the E56R variant of histone H2A as an IE1-noninteracting mutant has already se ...

Assay [3] concerns the target T1, NCP (nucleosome core particle). Briefly: ITC measurement of full-length IE1, IE1-CTD and IE1ΔCTD binding to NCP at 150 mM NaCl.

In the case of `CSCC[C@H](NC(=O)[C@@H]1CCCN1C(=O)[C@H](C)NC(=O)[C@@H](NC(=O)[C@H](CO)NC(=O)[C@H](CCCCN)NC(=O)CNC(=O)CN)[C@@H](C)O)C(=O)N[C@H](C(=O)N[C@H](C(=O)N[C@@H](CCCNC(=N)N)C(=O)N[C@@H](CO)C(=O)N[C@@H](CCCCN)C(=O)N[C@@H](C)C(=O)N[C@@H](CC(=O)O)C(=O)N[C@@H](CCC(N)=O)C(=O)O)[C@@H](C)O)C(C)C` [H481A] (H-GGKSTAPMVTRSKADQ-OH), the Kd (usually the equilibrium constant for the complex coming apart) in assay [1] was 43.4 ± 5.36 µM.
With `CSCC[C@H](NC(=O)CNC(=O)[C@@H]1CCCN1)C(=O)N[C@@H](CCCNC(=N)N)C(=O)N[C@@H](CC(C)C)C(=O)N[C@@H](CCCNC(=N)N)C(=O)N[C@@H](CO)C(=O)NCC(=O)N[C@@H](CCCNC(=N)N)C(=O)N[C@@H](CO)C(=O)N[C@H](C(=O)NCC(=O)N[C@@H](C)C(=O)N1CCC[C@H]1C(=O)O)[C@@H](C)O` [LANA] (H-PGMRLRSGRSTGAP-OH; N-terminus and C-terminus assumed), in assay [1] (ITC, 20°C, 10 mM Tris-HCl pH 7.5, 50 mM NaCl, human NCP, Figure 3), the “N (ITC)” value was found to be 1.97. Moreover, in the assay on 10-nm nucleosomal array, the “effect on 10-nm nucleosomal array (in words)” value is on record as “slightly affected”. In addition, the “N (ITC), H2A E56R NCP” value in assay [2] turned out to be 2.03. Besides, the “effect on folding of 30-nm chromatin fiber (in words)” value with 30-nm chromatin fiber is “does not affect the folding of the 30-nm chromatin fiber”. Further, in the assay on nucleosomal arrays, the “compaction of nucleosomal arrays (in words)” value is on record as “promotes the compaction of nucleosomal arrays”.
As to `CSCC[C@H](NC(=O)[C@@H]1CCCN1C(=O)[C@H](Cc1c[nH]cn1)NC(=O)[C@@H](NC(=O)[C@H](CO)NC(=O)[C@H](CCCCN)NC(=O)CNC(=O)CN)[C@@H](C)O)C(=O)N[C@H](C(=O)N[C@H](C(=O)N[C@@H](CCCNC(=N)N)C(=O)N[C@@H](CO)C(=O)N[C@@H](CCCCN)C(=O)N[C@@H](C)C(=O)N[C@@H](CC(=O)O)C(=O)N[C@@H](CCC(N)=O)C(=O)O)C(C)C)C(C)C` [T485V] (H-GGKSTHPMVVRSKADQ-OH), in assay [1], the Kd came out at 11.3 ± 0.73 µM.
On to `CSCC[C@H](NC(=O)[C@@H]1CCCN1C(=O)[C@H](Cc1c[nH]cn1)NC(=O)[C@@H](NC(=O)[C@H](CO)NC(=O)[C@H](CCCCN)NC(=O)CNC(=O)CN)[C@@H](C)O)C(=O)N[C@H](C(=O)N[C@H](C(=O)N[C@@H](CCCNC(=N)N)C(=O)N[C@@H](CO)C(=O)N[C@@H](CCCCN)C(=O)N[C@@H](C)C(=O)N[C@@H](CC(=O)O)C(=O)N[C@@H](CCC(N)=O)C(=O)O)[C@@H](C)O)C(C)C` [IE1-CTD], for which the Kd was 2.25 ± 0.1 µM in assay [3] and 0.42 ± 0.04 µM in assay [1].
In the case of `CSCC[C@H](NC(=O)[C@@H]1CCCN1C(=O)[C@@H](N)Cc1c[nH]cn1)C(=O)N[C@H](C(=O)N[C@H](C(=O)N[C@@H](CCCNC(=N)N)C(=O)N[C@@H](CO)C(=O)N[C@@H](CCCCN)C(=O)N[C@@H](C)C(=O)N[C@@H](CC(=O)O)C(=O)N[C@@H](CCC(N)=O)C(=O)O)[C@@H](C)O)C(C)C` [Δ476–480] (H-HPMVTRSKADQ-OH), the dissociation constant (Kd) in assay [1] turned out to be 12.1 ± 0.45 µM.
